Series [1] relates to Hamigera avellanea IFO 7721. In words: Antifungal activity, paper disc method (zone of growth inhibition). Type of series: cell-based. The conditions noted are these: for zone of inhibition at 100 µg/mL: Hamigera avellanea. The method, then: On the other hand, on agar plates [3.5 g disodium hydrogen phosphate, 0.5 g monopotassium phosphate, 5 g of yeast extract (Difco), 10 g glucose, 15 g agar, 1000 ml distilled water, pH 7.0], the antifungal activity of the test compound was assayed against Hamigera avellanea IFO 7721 by the paper disc method. Thus, on the plates inoculated with the above microorganism, the zones of growth inhibition were determined using paper discs immersed with 0.02 ml of a 100 μg/ml solution of demethylmaytansinoid compound (I).

A further series deals with Tetrahymena pyriformis W. Nature of the series: Antiprotozoan activity, serial dilution method (MIC). In kind it is cell-based. The method, then: Then, with Tetrahymena pyriformis W as the test organism and a medium composed of 20 g tryptose-peptone (Difco Co.), 1 g yeast extract, 1 g glucose, 1000 ml distilled water, 10 ml 1 M phosphate buffer (pH 7.0) as the assay medium, the microorganism was incubated at 28° C. for 44 to 48 hours and the growth inhibitory activity of demethylmaytansinoid compound (I) was assayed by the serial dilution method.

The next series is described as follows: Solubility. The conditions noted are these: for Solubility in benzene, ether: ether (Table 4); for Solubility in chloroform, ethyl acetate, tetrahydrofuran, acetone, ethanol, methanol: organic solvents (Table 4); for Solubility in pyridine, dimethyl sulfoxide: dimethyl sulfoxide (Table 4); for Solubility in chloroform, ethyl acetate, acetone, ethanol, methanol, pyridine, tetrahydrofuran & dimethylsulfoxide: organic solvents (Table 3); for Solubility in petr. ether, n-hexane & water: n-hexane & water (Table 3).

[2] abbreviates: IFO7721, read-out: Antifungal activity, (φ mm), zone of growth inhibition, paper disc (8 mm diam.), 0.02 ml of a 100 μg/ml solution.
The mark [3] stands for this setting: pH 7, read-out: Antiprotozoan activity, MIC.
Setting [4] is: IFO7721, paper disc (8 mm diam.), 0.02 ml of a 100 μg/ml solution, read-out: Antifungal activity, (φ mm), zone of growth inhibition.

Converted amounts (≈) assume the structure as drawn. Read-outs that look alike come from different tables or passages of the source. Bounds are passed on as bounds.

Consider `COC1C=CC=C(C)Cc2cc(O)cc(c2)N(C)C(=O)CC(OC(=O)C(C)C)C2(C)OC2C(C)C2CC1(O)NC(=O)O2` (stereo not shown) [20-Demethoxy-20-hydroxydechloromaytansinol 3-isobutyrate], for which the zone of inhibition at 100 µg/mL in series [1] (setting [2]) was 16 mm.

As to `COC1C=CC=C(C)Cc2cc(O)c(Cl)c(c2)N(C)C(=O)CC(OC(C)=O)C2(C)OC2C(C)C2CC1(O)NC(=O)O2` (stereo not shown) [20-Demethoxy-20-hydroxymaytanacine], in the series on Tetrahymena pyriformis W (setting [3]), the MIC stood at 10 µg/mL (≈ 16.9 µM). Moreover, in “Solubility”, the “Solubility in benzene, ether” value is given as “Slightly soluble”; the “Solubility in chloroform, ethyl acetate, tetrahydrofuran, acetone, ethanol, methanol” value was “Soluble”; the “Solubility in pyridine, dimethyl sulfoxide” value (shortened to “Solubility in pyridine”) is given as “Freely soluble”. Besides, the zone of inhibition at 100 µg/mL in series [1] (setting [2]) is 10 mm.

For the compound `COC1C=CC=C(C)Cc2cc(O)c(Cl)c(c2)N(C)C(=O)CC(OC(=O)[C@H](C)N(C)C(=O)C(C)C)C2(C)OC2C(C)C2CC1(O)NC(=O)O2` (stereo partly shown) [20-Demethoxy-20-hydroxymaytanbutine (L)], the zone of inhibition at 100 µg/mL in series [1] (setting [2]) is 24 mm.

As for `CCC(=O)N(C)[C@@H](C)C(=O)OC1CC(=O)N(C)c2cc(cc(O)c2Cl)CC(C)=CC=CC(OC)C2(O)CC(OC(=O)N2)C(C)C2OC12C` (stereo partly shown) [20-Demethoxy-20-hydroxymaytanprine (L)], the zone of inhibition at 100 µg/mL in series [1] (setting [2]) came to 23 mm.

With `COC1C=CC=C(C)Cc2cc(O)c(Cl)c(c2)N(C)C(=O)CC(OC(=O)[C@H](C)N(C)C(C)=O)C2(C)OC2C(C)C2CC1(O)NC(=O)O2` (stereo partly shown) [20-Demethoxy-20-hydroxymaytansine (L)], the minimum inhibitory concentration (MIC) in the series on Tetrahymena pyriformis W (setting [3]) was greater than 16 µg/mL.

`COC1C=CC=C(C)Cc2cc(O)c(Cl)c(c2)N(C)C(=O)CC(OC(=O)Nc2ccccc2)C2(C)OC2C(C)C2CC1(O)NC(=O)O2` (stereo not shown) [20-Demethoxy-20-hydroxymaytansinol 3-N-phenylcarbamate]: the MIC with Tetrahymena pyriformis W (setting [3]) is no less than 8 µg/mL. The zone of inhibition at 100 µg/mL in series [1] (setting [2]) is less than 8 mm.

Consider `COC1C=CC=C(C)Cc2cc(O)c(Cl)c(c2)N(C)C(=O)CC(OC(=O)C2CCCCC2)C2(C)OC2C(C)C2CC1(O)NC(=O)O2` (stereo not shown) [20-Demethoxy-20-hydroxymaytansinol 3-cyclohexanecarboxylate], for which the zone of inhibition at 100 µg/mL in series [1] (setting [2]) was determined as 20 mm.

As to `CCCCCC(=O)OC1CC(=O)N(C)c2cc(cc(O)c2Cl)CC(C)=CC=CC(OC)C2(O)CC(OC(=O)N2)C(C)C2OC12C` (stereo not shown) [20-Demethoxy-20-hydroxymaytansinol 3-hexanoate], the zone of inhibition at 100 µg/mL in series [1] (setting [2]) turned out to be 21 mm.

Consider `COC1C=CC=C(C)Cc2cc(O)c(Cl)c(c2)N(C)C(=O)CC(OC(=O)c2ccc(Cl)cc2)C2(C)OC2C(C)C2CC1(O)NC(=O)O2` (stereo not shown) [20-Demethoxy-20-hydroxymaytansinol 3-p-chlorobenzoate], for which, in the series on Tetrahymena pyriformis W (setting [3]), the MIC was determined as 4 µg/mL (≈ 5.8 µM). In addition, the zone of inhibition at 100 µg/mL in series [1] (setting [2]) is 10 mm.

In the case of `COC1C=CC=C(C)Cc2cc(O)c(Cl)c(c2)N(C)C(=O)CC(OC(=O)Cc2ccccc2)C2(C)OC2C(C)C2CC1(O)NC(=O)O2` (stereo not shown) [20-Demethoxy-20-hydroxymaytansinol 3-phenylacetate], the zone of inhibition at 100 µg/mL in series [1] (setting [4]) is 23 mm. For the same compound, in series [1] (paper disc (8 mm diam.), 0.02 ml of a 100 μg/ml solution), the “Antifungal activity, (φ mm), zone of growth inhibition” value is recorded as 15 mm.

As for `COC1C=CC=C(C)Cc2cc(O)c(Cl)c(c2)N(C)C(=O)CC(OC(=O)c2ccccn2)C2(C)OC2C(C)C2CC1(O)NC(=O)O2` (stereo not shown) [20-Demethoxy-20-hydroxymaytansinol 3-picolinate], the minimal inhibitory concentration (MIC) with Tetrahymena pyriformis W (setting [3]) was no less than 4 µg/mL. The zone of inhibition at 100 µg/mL in series [1] (setting [2]) was 10 mm.

As for `CCC(=O)OC1CC(=O)N(C)c2cc(cc(O)c2Cl)CC(C)=CC=CC(OC)C2(O)CC(OC(=O)N2)C(C)C2OC12C` (stereo not shown) [20-Demethoxy-20-hydroxymaytansinol propionate], in “Solubility”, the “Solubility in benzene, ether” value is “Slightly soluble”; the “Solubility in chloroform, ethyl acetate, tetrahydrofuran, acetone, ethanol, methanol” value is on record as “Soluble”; the “Solubility in pyridine” value is “Freely soluble”. Also, the zone of inhibition at 100 µg/mL in series [1] (setting [2]) is 15 mm.

As for `COC1C=CC=C(C)Cc2cc(O)c(Cl)c(c2)N(C)C(=O)CC(O)C2(C)OC2C(C)C2CC1(O)NC(=O)O2` (stereo not shown) [20-Demethoxy-20-hydroxymaytansinol], in the series with Tetrahymena pyriformis W (setting [3]), the minimal inhibitory concentration (MIC) was found to be 40 µg/mL (≈ 72.6 µM). Besides, in “Solubility”, the “Solubility in benzene, ether” value was “Slightly soluble”; the “Solubility in chloroform, ethyl acetate, tetrahydrofuran, acetone, ethanol, methanol” value was “Soluble”; the “Solubility in pyridine” value is “Freely soluble”. In series [1] (setting [2]), the zone of inhibition at 100 µg/mL was less than 8 mm.

Consider `COC1C=CC=C(C)Cc2cc(O)c(Cl)c(c2)N(C)C(=O)CC(OC(=O)[C@H](C)N(C)C(=O)CC(C)C)C2(C)OC2C(C)C2CC1(O)NC(=O)O2` (stereo partly shown) [20-Demethoxy-20-hydroxymaytanvaline (L)], for which, in the series on Tetrahymena pyriformis W (setting [3]), the minimal inhibitory concentration (MIC) stood at 2 µg/mL (≈ 2.78 µM). Further, the zone of inhibition at 100 µg/mL in series [1] (setting [2]) worked out at 24 mm.

As for `COc1cc2cc(c1Cl)N(C)C(=O)CC(OC(=O)C(C)C)C1(C)OC1C(C)C1CC(O)(NC(=O)O1)C(OC)C=CC=C(C)C2` (stereo not shown) [Ansamitocin P-3, reference compound], in the series “Solubility”, the “Solubility in chloroform, ethyl acetate, acetone, ethanol, methanol, pyridine, tetrahydrofuran & dimethylsulfoxide” value is “Soluble” and the “Solubility in petr. ether, n-hexane & water” value is given as “Insoluble”.

On to `COc1cc2cc(c1Cl)N(C)C(=O)CC(OC(=O)CC(C)C)C1(C)OC1C(C)C1CC(O)(NC(=O)O1)C(OC)C=CC=C(C)C2` (stereo not shown) [Ansamitocin P-4, reference compound], for which, in “Solubility”, the “Solubility in chloroform, ethyl acetate, acetone, ethanol, methanol, pyridine, tetrahydrofuran & dimethylsulfoxide” value is recorded as “Soluble” and the “Solubility in petr. ether, n-hexane & water” value is listed as “Insoluble”.

`CCCC(=O)OC1CC(=O)N(C)c2cc(cc(O)c2Cl)CC(C)=CC=CC(OC)C2(O)CC(OC(=O)N2)C(C)C2OC12C` (stereo not shown) [PDM-3', 20-demethoxy-20-hydroxymaytansinol 3-butyrate]: the minimum inhibitory concentration (MIC) in the series with Tetrahymena pyriformis W (setting [3]) was 2 µg/mL (≈ 3.22 µM). The zone of inhibition at 100 µg/mL in series [1] (setting [2]) is 21 mm.

On to `COC1C=CC=C(C)Cc2cc(O)c(Cl)c(c2)N(C)C(=O)CC(OC(=O)C(C)C)C2(C)OC2C(C)C2CC1(O)NC(=O)O2` (stereo not shown) [PDM-3], for which the minimum inhibitory concentration (MIC) with Tetrahymena pyriformis W (serial dilution, 28° C., 44 to 48 hours, pH 7.0, read-out: Antiprotozoan activity, MIC) is 2 µg/mL (≈ 3.22 µM). Also, the zone of inhibition at 100 µg/mL in series [1] (setting [4]) was 21 mm.

For the compound `COC1C=CC=C(C)Cc2cc(O)c(Cl)c(c2)N(C)C(=O)CC(OC(=O)CC(C)C)C2(C)OC2C(C)C2CC1(O)NC(=O)O2` (stereo not shown) [PDM-4, 20-demethoxy-20-hydroxymaytansinol 3-isovalerate], in the series on Tetrahymena pyriformis W (setting [3]), the minimal inhibitory concentration (MIC) came to 1 µg/mL (≈ 1.57 µM). For the same compound, in “Solubility”, the “Solubility in benzene, ether” value is given as “Slightly soluble”; the “Solubility in chloroform, ethyl acetate, tetrahydrofuran, acetone, ethanol, methanol” value is “Soluble”; the “Solubility in pyridine” value is on record as “Freely soluble”. Also, the zone of inhibition at 100 µg/mL in series [1] (setting [2]) was 24 mm.

As a reminder, the MIC is the lowest concentration that inhibits growth of the organism.

These data come from patent US4307016A, “Demethyl maytansinoids” (priority 1978, dated 1981).
